Source: patent US20050186135A1, “Compositions, methods, apparatuses, and systems for singlet oxygen delivery” (priority 2001, published 2005)

Key:
[1] = in vivo; cited from earlier work
[2] = Ameta et al. 1990; Parker and Stanbro 1984; cited from earlier work
mitosis = conditions: Lamprecht et al. 1990; cited from earlier work
tumor growth = conditions: mice, Altermatt et al. 1990; cited from earlier work
skin keratosis lesion = assay: Treatment of Keratosis I: intralesional injection; assay type: in vivo, human; conditions: 0.4 ml of 6% sodium hypochlorite alone into center of ~1.25 cm lesion
Procedure: A skin keratosis lesion measuring approximately 1.25 cm in diameter was chosen as a target for treatment. The lesion was located on the left temple of a person.
Using a 30-gauge hypodermic needle, 0.4 ml of a 6% solution of sodium hypochlorite was injected into the center of the lesion. […] See FIG. 20 for a photo of the area immediately following the injection.
Immediately after the first injection, using a 30-gauge hypodermic needle, 0.4 ml of a 3% solution of hydrogen peroxide was injected into the center of the lesion. […] See FIG. 21 for a photo of the area immediately following the injection.

[3] = tested on: coronary artery blocked with sclerotic plaque; assay: Treatment of Sclerotic Plaque I: cadaver artery section in test tube; set-up: species or system human; conditions: 2 ml of 6% sodium hypochlorite, shaken one minute
Excerpt: A coronary artery blocked with sclerotic plaque, taken from a human cadaver, was chosen as a target site for treatment. The coronary artery was grayish pink in color and suspended in a formaldehyde preservative. It was surrounded with fatty tissue of an irregular shape, which measured approximately 1 cm in its widest dimension. It measured 0.6 cm in length and 0.5 cm diameter. The lumen of the vessel was completed occluded with sclerotic plaque.
The cross section of coronary artery was placed in a test tube containing 2 ml of 6% of sodium hypochlorite and was shaken for one minute. […] This preparation was then again shaken.

[4] = tested on: coronary artery blocked with sclerotic plaque; assay: Treatment of Sclerotic Plaque II: hypochlorite alone, then peroxide added; set-up: species or system human; conditions: 2 ml of 6% sodium hypochlorite alone
Procedure: The following tests were performed to corroborate that the singlet oxygen produced by the hydrogen peroxide and the sodium hypochlorite had actually cleared and opened the human coronary artery blocked with the sclerotic plaque.
Like Example 3, a coronary artery blocked with sclerotic plaque, taken from a human cadaver, was prepared as a target site for treatment. The coronary artery was grayish pink in color and suspended in a formaldehyde preservative. It was surrounded with fatty tissue of an irregular shape, which measured 1.1 cm in its widest dimension. It measured approximately 0.6 cm in length and 0.5 cm in diameter. The lumen of the vessel was completed occluded with sclerotic plaque.
The human coronary artery with the plaque was first treated with 2 ml of 6% solution of sodium hypochlorite alone.
Immediately after the treatment with the sodium hypochlorite, 2 ml of 3% solution of hydrogen peroxide was added to the 2 ml of 6% solution of sodium hypochlorite containing the human coronary artery with the plaque.

influenzal pneumonia = conditions: intravenous hydrogen peroxide solution, Oliver 1920; cited from earlier work
[5] = gives peroxyl and/or alkoxyl radicals; Noguchi et al. 2002; cited from earlier work
atherosclerosis = conditions: in vivo; cited from earlier work
a single cell = conditions: Oseroff et al. 1986; cited from earlier work
[6] = stated as believed; cited from earlier work

**Q.** Which results are given for [2H]O[2H] [D2O, deuterium oxide]?
**A.** safety in infants [1]: safe; toxicity in mammals [1]: low toxicity; effect on lifetime of singlet oxygen [2]: can increase the lifetime of singlet oxygen; effect on mitosis (mitosis): anti-mitotic effect optimized between anaphase and metaphase; effect on rate of tumor growth (tumor growth): can depress the rate of tumor growth in mice

**Q.** Which “bleeding at injection site” value (skin keratosis lesion) does the source give for OCl [sodium hypochlorite] here?
**A.** minor bleeding at the lower border of the injection site

**Q.** What about the sensation on injection (skin keratosis lesion; 30-gauge needle) of the same compound?
**A.** mild burning sensation

**Q.** What about the “solubilization by hypochlorite alone” value [3] of the same compound?
**A.** minimal solubilization of the surrounding fatty tissue of the vessel

**Q.** What about the “change of plaque with hypochlorite alone” value [4] of the same compound?
**A.** no significant changes occurred to the plaque

**Q.** Which treatment success (influenzal pneumonia) does the source give for OO [hydrogen peroxide] here?
**A.** high rate of success

**Q.** For CC(C)(C)OO [tert-butyl hydroperoxide], which “formation of singlet oxygen on reaction with hypochlorite” value [5] is on record?
**A.** little formation of singlet oxygen

**Q.** For CC(=O)[O-].CC(=O)[O-].CCc1c(CC)c2cc3nc(cnc4cc(OCCOCCOCCOC)c(OCCOCCOCCOC)cc4ncc4nc(cc1[n-]2)C(CCCO)=C4C)C(C)=C3CCCO.O.[Lu+3] [Antrin, motexafin lutetium], which “feasibility and tolerability of photoangioplasty” value (atherosclerosis) is on record?
**A.** feasible and well tolerated

**Q.** For O=O [singlet oxygen], which “molecules of singlet oxygen necessary to kill a single cell” value (a single cell) is on record?
**A.** 10^10 molecules

**Q.** What about the “lifetime of singlet oxygen” value [6] of the same compound?
**A.** about 50 nanoseconds
